In US4667027A, “Cephem compounds and their production” (Takeda Chemical Industries, Ltd., priority 1984, dated 1987):
In brackets after ≈: the same amount, converted by molar mass.

Test system: Escherichia coli PG8
Assay: β-lactamase stability test, growth inhibition zone, no β-lactamase added
Assay type: cell-based
Settings: β-lactamase not added; test organism Escherichia coli PG8; drug 100 μg/ml; nutrient agar pH 7.0; read-out: diameter of growth inhibition zone
Excerpt: (§1) TAN-591A, B, C are stable to various β-lactamases. The results of stability test of the antibiotic to two β-lactamases employing Escherichia coli PG8 as a test organism are shown in Table 5. […]

| SMILES | zone of inhibition at 100 µg/mL |
| --- | --- |
| CC(N)C(=O)NC(CO)C(=O)NC(CO)C(=O)NC(CCCCN)C(O)CC(=O)OCC1=C(C(=O)O)N2C(=O)C(NC=O)(NC(=O)CCCC(N)C(=O)O)C2SC1 (centres unmarked) [TAN-591C] | 22 mm |
| CO[C@@]1(NC(=O)CCC[C@@H](N)C(=O)O)C(=O)N2C(C(=O)O)=C(COC(N)=O)CS[C@@H]21 [CMC, cephamycin C, reference compound] | 34 mm |

Test system: Staphylococcus aureus FDA 209P
Assay: Antimicrobial spectrum, minimal inhibitory concentration (agar dilution)
Assay type: cell-based
Settings: FDA209P, hydrochloride, inoculum 1 loopful of about 10^6/ml
Excerpt: (§2) *Culture medium: 17.5 g of Bacto antibiotic medium 3 (Difco), 5 g of Bact
(§3) yeast extract (Difco), 20 g of Bacto agar (Difco), 1 l of distilled water
(§4) The amount of inoculated microorganism: 1 loopful of about 10^6 /ml o
(§5) microorganism suspension.
(§6) *Medium: Bacto antibiotic medium (Difco) 17.5 g, Bacto yeast extract
(§7) (Difco) 5 g, Bacto agar (Difco) 20 g, distilled water 1 l, pH not

| SMILES | MIC |
| --- | --- |
| CC(N)C(=O)NC(CO)C(=O)NC(CO)C(=O)NC(CCCCN)C(O)CC(=O)OCC1=C(C(=O)O)N2C(=O)C(NC=O)(NC(=O)CCCC(N)C(=O)O)C2SC1 (centres unmarked) [TAN-591C] | > 100 µg/mL |

Test system: Salmonella typhimurium IFO 12529
Assay: as above
Assay type: cell-based
Settings: Salmonella enterica, hydrochloride, inoculum 1 loopful of about 10^6/ml
Excerpt: as §2, §3, §4, §5, §6, §7

| SMILES | MIC |
| --- | --- |
| CC(N)C(=O)NC(CO)C(=O)NC(CO)C(=O)NC(CCCCN)C(O)CC(=O)OCC1=C(C(=O)O)N2C(=O)C(NC=O)(NC(=O)CCCC(N)C(=O)O)C2SC1 (centres unmarked) [TAN-591C] | 50 µg/mL (≈ 60 µM) |

Test system: Klebsiella pneumoniae IFO 3317
Assay: as above
Assay type: cell-based
Settings: IFO3317, hydrochloride, inoculum 1 loopful of about 10^6/ml
Excerpt: as §2, §3, §4, §5, §6, §7

| SMILES | MIC |
| --- | --- |
| CC(N)C(=O)NC(CO)C(=O)NC(CO)C(=O)NC(CCCCN)C(O)CC(=O)OCC1=C(C(=O)O)N2C(=O)C(NC=O)(NC(=O)CCCC(N)C(=O)O)C2SC1 (centres unmarked) [TAN-591C] | 50 µg/mL (≈ 60 µM) |

Test system: Bacillus subtilis NIHJ PCI 219
Assay: as above
Assay type: cell-based
Settings: hydrochloride, inoculum 1 loopful of about 10^6/ml
Excerpt: as §2, §3, §4, §5, §6, §7

| SMILES | MIC |
| --- | --- |
| CC(N)C(=O)NC(CO)C(=O)NC(CO)C(=O)NC(CCCCN)C(O)CC(=O)OCC1=C(C(=O)O)N2C(=O)C(NC=O)(NC(=O)CCCC(N)C(=O)O)C2SC1 (centres unmarked) [TAN-591C] | 25 µg/mL (≈ 30 µM) |

Test system: Escherichia coli NIHJ JC-2
Assay: as above
Assay type: cell-based
Settings: NIHJJC2, hydrochloride, inoculum 1 loopful of about 10^6/ml
Excerpt: as §2, §3, §4, §5, §6, §7

| SMILES | MIC |
| --- | --- |
| CC(N)C(=O)NC(CO)C(=O)NC(CO)C(=O)NC(CCCCN)C(O)CC(=O)OCC1=C(C(=O)O)N2C(=O)C(NC=O)(NC(=O)CCCC(N)C(=O)O)C2SC1 (centres unmarked) [TAN-591C] | 50 µg/mL (≈ 60 µM) |

Test system: Bacillus megaterium IFO 12108
Assay: as above
Assay type: cell-based
Settings: Priestia megaterium, IFO12108, hydrochloride, inoculum 1 loopful of about 10^6/ml
Excerpt: as §2, §3, §4, §5, §6, §7

| SMILES | MIC |
| --- | --- |
| CC(N)C(=O)NC(CO)C(=O)NC(CO)C(=O)NC(CCCCN)C(O)CC(=O)OCC1=C(C(=O)O)N2C(=O)C(NC=O)(NC(=O)CCCC(N)C(=O)O)C2SC1 (centres unmarked) [TAN-591C] | 25 µg/mL (≈ 30 µM) |

Test system: Citrobacter freundii IFO 12681
Assay: as above
Assay type: cell-based
Settings: IFO12681, hydrochloride, inoculum 1 loopful of about 10^6/ml
Excerpt: as §2, §3, §4, §5, §6, §7

| SMILES | MIC |
| --- | --- |
| CC(N)C(=O)NC(CO)C(=O)NC(CO)C(=O)NC(CCCCN)C(O)CC(=O)OCC1=C(C(=O)O)N2C(=O)C(NC=O)(NC(=O)CCCC(N)C(=O)O)C2SC1 (centres unmarked) [TAN-591C] | 100 µg/mL (≈ 120 µM) |

Test system: Proteus vulgalis IFO 3988
Assay: as above
Assay type: cell-based
Settings: hydrochloride, inoculum 1 loopful of about 10^6/ml
Excerpt: as §2, §3, §4, §5, §6, §7

| SMILES | MIC |
| --- | --- |
| CC(N)C(=O)NC(CO)C(=O)NC(CO)C(=O)NC(CCCCN)C(O)CC(=O)OCC1=C(C(=O)O)N2C(=O)C(NC=O)(NC(=O)CCCC(N)C(=O)O)C2SC1 (centres unmarked) [TAN-591C] | 50 µg/mL (≈ 60 µM) |

Test system: Serratia marcescens IFO 12648
Assay: as above
Assay type: cell-based
Settings: IFO12648, hydrochloride, inoculum 1 loopful of about 10^6/ml
Excerpt: as §2, §3, §4, §5, §6, §7

| SMILES | MIC |
| --- | --- |
| CC(N)C(=O)NC(CO)C(=O)NC(CO)C(=O)NC(CCCCN)C(O)CC(=O)OCC1=C(C(=O)O)N2C(=O)C(NC=O)(NC(=O)CCCC(N)C(=O)O)C2SC1 (centres unmarked) [TAN-591C] | 50 µg/mL (≈ 60 µM) |

Test system: Acinetobacter calcoaceticus IFO 12552
Assay: as above
Assay type: cell-based
Settings: IFO12552, hydrochloride, inoculum 1 loopful of about 10^6/ml
Excerpt: as §2, §3, §4, §5, §6, §7

| SMILES | MIC |
| --- | --- |
| CC(N)C(=O)NC(CO)C(=O)NC(CO)C(=O)NC(CCCCN)C(O)CC(=O)OCC1=C(C(=O)O)N2C(=O)C(NC=O)(NC(=O)CCCC(N)C(=O)O)C2SC1 (centres unmarked) [TAN-591C] | 3.13 µg/mL (≈ 3.75 µM) |

Test system: Alcaligenes faecalis IFO 13111
Assay: as above
Assay type: cell-based
Settings: IFO13111, hydrochloride, inoculum 1 loopful of about 10^6/ml
Excerpt: as §2, §3, §4, §5, §6, §7

| SMILES | MIC |
| --- | --- |
| CC(N)C(=O)NC(CO)C(=O)NC(CO)C(=O)NC(CCCCN)C(O)CC(=O)OCC1=C(C(=O)O)N2C(=O)C(NC=O)(NC(=O)CCCC(N)C(=O)O)C2SC1 (centres unmarked) [TAN-591C] | 50 µg/mL (≈ 60 µM) |

Test system: Pseudomonas aeruginosa IFO 3080
Assay: as above
Assay type: cell-based
Settings: IFO3080, hydrochloride, inoculum 1 loopful of about 10^6/ml
Excerpt: as §2, §3, §4, §5, §6, §7

| SMILES | MIC |
| --- | --- |
| CC(N)C(=O)NC(CO)C(=O)NC(CO)C(=O)NC(CCCCN)C(O)CC(=O)OCC1=C(C(=O)O)N2C(=O)C(NC=O)(NC(=O)CCCC(N)C(=O)O)C2SC1 (centres unmarked) [TAN-591C] | > 100 µg/mL |

Test system: Brevibacterium thiogenitalis ATCC 19240
Assay: as above
Assay type: cell-based
Settings: Corynebacterium glutamicum, ATCC19240, hydrochloride, inoculum 1 loopful of about 10^6/ml
Excerpt: as §2, §3, §4, §5, §6, §7

| SMILES | MIC |
| --- | --- |
| CC(N)C(=O)NC(CO)C(=O)NC(CO)C(=O)NC(CCCCN)C(O)CC(=O)OCC1=C(C(=O)O)N2C(=O)C(NC=O)(NC(=O)CCCC(N)C(=O)O)C2SC1 (centres unmarked) [TAN-591C] | 12.5 µg/mL (≈ 15 µM) |

Test system: not listed separately
Assay: Solubility in solvents
Assay type: physicochemical
Settings: dimethylsulfoxide, methanol, acetone, ethyl acetate; hydrochloride

| SMILES | Solubility |
| --- | --- |
| CC(N)C(=O)NC(CO)C(=O)NC(CO)C(=O)NC(CCCCN)C(O)CC(=O)OCC1=C(C(=O)O)N2C(=O)C(NC=O)(NC(=O)CCCC(N)C(=O)O)C2SC1 (centres unmarked) [TAN-591C] | Sparingly soluble |

Same assay, conditions: water, aqueous acetone, aqueous alcohol; hydrochloride

| SMILES | Solubility |
| --- | --- |
| CC(N)C(=O)NC(CO)C(=O)NC(CO)C(=O)NC(CCCCN)C(O)CC(=O)OCC1=C(C(=O)O)N2C(=O)C(NC=O)(NC(=O)CCCC(N)C(=O)O)C2SC1 (centres unmarked) [TAN-591C] | Easily soluble |

Test system: penicillinase
Assay: β-lactamase stability test, growth inhibition zone with penicillinase
Assay type: cell-based
Settings: penicillinase added; test organism Escherichia coli PG8; drug 100 μg/ml; nutrient agar pH 7.0
Excerpt: as §1

| SMILES | diameter of growth inhibition zone |
| --- | --- |
| CC(N)C(=O)NC(CO)C(=O)NC(CO)C(=O)NC(CCCCN)C(O)CC(=O)OCC1=C(C(=O)O)N2C(=O)C(NC=O)(NC(=O)CCCC(N)C(=O)O)C2SC1 (centres unmarked) [TAN-591C] | 22 mm |
| CO[C@@]1(NC(=O)CCC[C@@H](N)C(=O)O)C(=O)N2C(C(=O)O)=C(COC(N)=O)CS[C@@H]21 [CMC, cephamycin C, reference compound] | 34 mm |

Test system: cephalosporinase
Assay: β-lactamase stability test, growth inhibition zone with cephalosporinase
Assay type: cell-based
Settings: cephalosporinase added; test organism Escherichia coli PG8; drug 100 μg/ml; nutrient agar pH 7.0
Excerpt: as §1

| SMILES | diameter of growth inhibition zone |
| --- | --- |
| CC(N)C(=O)NC(CO)C(=O)NC(CO)C(=O)NC(CCCCN)C(O)CC(=O)OCC1=C(C(=O)O)N2C(=O)C(NC=O)(NC(=O)CCCC(N)C(=O)O)C2SC1 (centres unmarked) [TAN-591C] | 22 mm |
